This experiment is described as follows: Radioligand Binding Assay: Binding of this radioligand was preformed in 5 mL borosilicate glass test tubes at room temperature. Binding was initiated by adding membranes to increasing concentrations of [3H]compound in 100 mMNaCl, 20 mMTrisHCl, pH 7.4 buffer containing 0.01% w/v bovine serum albumin (BSA) for 18 h. Non-specific binding was determined in the presence of 1 uM unlabelled compound. …. Details: species or system Homo sapiens.

Structures are written as SMILES.

Description: Radioligand Binding Assay: Binding of this radioligand was preformed in 5 mL borosilicate glass test tubes at room temperature. […] Non-specific binding was determined in the presence of 1 uM unlabelled compound. […] [3H]compound bound to filters was quantified by liquid scintillation counting.

As for `O=C(NS(O)(O)C1CC1)c1cc(C2CC2)c(CN2CCC(Oc3ccc(F)cc3Cl)CC2)cc1F`, the 50% inhibitory concentration (IC50) turned out to be 14 nM.
For the compound `COC[C@H](c1cc(Cl)cc(Cl)c1)N1CCC[C@@H](Oc2cc(F)c(C(=O)NS(C)(=O)=O)cc2C2CC2)C1`, the IC50 worked out at 6 nM.

For orientation: IC50 means the midpoint of a concentration-inhibition curve.

The values are drawn from ChEMBL document CHEMBL5725292, “Substituted benzamides and methods of use thereof” (2017).
